Measured values as given in US9353116B2, “Methods and compositions for kinase inhibition” (THE REGENTS OF THE UNIVERSITY OF CALIFORNIA, priority 2010, dated 2016).
pIC50: −log10 of the molar value.

What was measured:
T338C c-Src [1] = target: T1, T338C c-Src (Gallus gallus (Chicken), UniProt P00523, T338C); test: Full protein mass spectrometry of covalent labeling; assay type: binding; conditions: two equivalents of inhibitor
Description: Protein labeling conditions: Kinase labeling reactions were performed by incubating 30 μL quantities of c-Src variants (in 50 mM Tris pH 8, 100 mM NaCl, 1 mM DTT, 5% glycerol) with two equivalents of inhibitor in DMSO (final DMSO concentration=2.4%). The covalent labeling reaction was quenched by removing 4 μL and adding it to 31 μL of 0.1% formic acid. The sample was then analyzed by ES1-oa-TOF mass spectrometry.

T338C c-Src [2] = target: T1, T338C c-Src; test: Gel filtration and kinetic assay, T338C c-Src; assay type: biochemical; conditions: 23 μM inhibitor, 25 minutes, then PD10 desalting
Description: (§1) Inhibitors (final concentration 23 μM) were incubated with c-Src variants (final concentration 11.5 μM) in kinase reaction buffer (50 mM Tris pH 8, 100 mM NaCl, 1 mM DTT, 5% glycerol, 5% DMSO) for 25 minutes at room temperature. The solutions (2.6 mL total) were then passed over PD10 desalting columns (GE Healthcare) using the kinase reaction buffer for elution. Src concentrations were calculated using the extinction coefficient for c-Src (51.140 mM^−1cm^−1) {Seeliger, 2005 #100}. Kinase assays were performed as described in the experimental section at a final enzyme concentration of 10 nM.

I338T v-Src = I338T v-Src (Rous sarcoma virus (strain H-19), UniProt P25020, I338T); assay type: cell-based
Description: (§2) Curr Biol 8(5):257-266. Cells were grown to 60-90% confluence in DMEM supplemented with fetal bovine serum (10%), penicillin ‘G’ (100 units/ml) and streptomycin sulfate (100 μg/ml) (PenStrep, UCSF Cell Culture Facility) prior to treatment with kinase inhibitors dissolved in DMSO (final DMSO concentration, 0.5%). Following 1 hour of incubation with inhibitors at 37° C., cells were harvested in lysis buffer (50 mM Tris (pH 7.4), 300 mM NaCl, 5 mM EDTA, 1% triton, 0.02% NaN3, 1× complete mini protease inhibitor (Roche), 1 mM PMSF, 1×PHOS-stop (Roche), 0.02 μM microcystin, 2 mM sodium orthovanadate), normalized for concentration and analyzed by Western blot for global phosphotyrosine levels (4G10, Millipore, 1:1000). Levels of β-actin (β-actin Antibody, Cell Signaling, 1:1000) and v-Src (Src 32G6 rabbit mAb, Cell Signaling, 1:1000) were ascertained by Western blot.
(§3) I338C (v-Src-ES1, SEQ ID NO:48), I338T (SEQ ID NO:49), I338G (v-Src-AS1, SEQ ID NO:50) and WT v-Src-transformed NIH-3T3 cell lines were generated. Unlike c-Src, v-Src is constitutively active and harbors an isoleucine gatekeeper. The I338T v-Src variant was generated for consistency with the in vitro c-Src studies. For each cell line, global levels of phosphotyrosine were analyzed (FIG. 7). […]

v-Src-ES1 (I338C) = v-Src-ES1 (I338C) (Rous sarcoma virus (strain H-19), UniProt P25020, I338C); test: Inhibition assay with v-Src-ES1 transformed NIH-3T3 cells; assay type: cell-based
Description: as §2, §3

c-Src-ES2 (T338C/V323A) = c-Src-ES2 (T338C/V323A) (Gallus gallus (Chicken), UniProt P00523, T338C/V323A); test: In vitro kinase assay, c-Src-ES2; assay type: biochemical
Description: (§4) In vitro kinase assays for c-Src variants were performed in 50 mM Tris (pH 8.0), 10 mM MgCl2 and 1 mg/mL BSA. When obtaining kinetic parameters (kcat, Km) kinase and peptide substrate (IYGEFKKK) (SEQ ID NO:51) concentrations were 2 nM and 500 μM, respectively, while ATP concentrations ranged from 2000-0.655 μM. Addition of nonradioactive ATP supplemented with ^32P ATP (3,000 Ci/mmol, NEN) was used to initiate kinase reactions. Time points were selected such that product formation never exceeded 10%. Reactions were quenched by spotting 3 μL quantities onto phosphocellulose sheets (P81, Whatman). Afterwards, the sheets were washed 3×5 minutes in 0.5% phosphoric acid and dried. Radioactivity was measured by phosphorimaging and recorded on a Typhoon fluorescence imager (Molecular Dynamics). Data were plotted as rate (min^−1) versus ATP concentration and fitted to the Michaelis-Menten equation, v=[(kcat)[S]]/(Km+[S]), using Kaleidagraph software (Synergy) to extract kinetic parameters. When obtaining IC50 values for the inhibitors, 2% (v/v) DMSO was included in kinase reactions. In these cases ATP, peptide, and enzyme concentrations were 15 nM, 100 μM and 5 nM, respectively, while inhibitor concentrations ranged from 10,000-0.610 nM. In all cases, a ten-minute preincubation step between the kinase and the inhibitor preceded addition of ATP and a fifteen-minute reaction. The data was fitted to a sigmoidal dose-response curve using Prism 4.0c (GraphPad Software) to obtain IC50 values.

c-Src-ES3 (T338C/V323S) = c-Src-ES3 (T338C/V323S) (Gallus gallus (Chicken), UniProt P00523, T338C/V323S); test: In vitro kinase assay, c-Src-ES3; assay type: biochemical
Description: as §4

WT c-Src [3] = target: T2, WT c-Src (Gallus gallus (Chicken), UniProt P00523); test: Gel filtration and kinetic assay, WT c-Src; assay type: biochemical; conditions: 23 μM inhibitor, 25 minutes, then PD10 desalting
Description: as §1

WT c-Src [4] = target: T2, WT c-Src; test: In vitro kinase assay, WT c-Src; assay type: biochemical; conditions: inhibitor preincubated with Src ten minutes prior to addition of ATP; read-out: WT c-Src IC50
Description: as §4

307 kinases = test: Kinome-wide profiling (SelectScreen Kinase Profiling Service); assay type: biochemical; conditions: compounds at 1 μM, ATP at Km,app
Description: The percent inhibition results in FIG. were generated with biochemical enzymatic kinase assays using the SelectScreen® Kinase Profiling Service (Life Technologies Corporation, Madison, Wis.). Compounds were assayed at 1 μM at an ATP concentration equal to the ATP Km,app for the assay following the detailed procedures described in the SelectScreen® Customer Protocol and Assay Conditions documents located at www.invitrogen.com/kinaseprofiling.
Compounds that were profiled include, but are not limited to, 3, 4, 9, 13, and 20. […] The exocyclic amine mimics N6 of ATP and plays an important role in a hydrogen bonding interaction with the hinge region of kinases.

CC(C)n1nc(Cc2cccc(C(=O)CF)c2)c2c(N)ncnc21 [Compound 13, 1-(3-((4-amino-1-isopropyl-1H-pyrazolo[3,4-d]pyrimidin-3-yl)methyl)phenyl)-2-fluoroethanone]
covalent labeling / adduct formation by full protein mass spectrometry (T338C c-Src [1]): not observed
inhibitory activity after gel filtration, T338C c-Src (T338C c-Src [2]): retained
inhibition of I338T v-Src in cells (global phosphotyrosine levels) (I338T v-Src): neither 9 nor 13 inhibited I338T v-Src
inhibition of v-Src-ES1 in cells (global phosphotyrosine levels) (v-Src-ES1 (I338C)): inhibited v-Src-ES1 in a dose-dependent manner
IC50 (c-Src-ES2 (T338C/V323A); ES2 = T338C/V323A, read-out: c-Src variant IC50 (nM) ES2): 67 nM
change of inhibitor potency upon second-site Val323 mutations (c-Src-ES2 (T338C/V323A); c-Src-ES2 and c-Src-ES3 relative to c-Src-ES1): Enhanced inhibitor potency
fold increase in potency with V323A mutation (c-Src-ES2 (T338C/V323A); c-Src-ES2 relative to c-Src-ES1): 5 fold
IC50 (c-Src-ES3 (T338C/V323S); ES3 = T338C/V323S, read-out: c-Src variant IC50 (nM) ES3): 29 nM
fold improvement in potency with V323S mutation (c-Src-ES3 (T338C/V323S); c-Src-ES3 relative to c-Src-ES1): 12 fold
inhibitory activity after gel filtration, WT c-Src (WT c-Src [3]): lost
pIC50 (WT c-Src [4]): < 5.30
off-target profile in kinome-wide screen (307 kinases): clean profile
